SMILES strings stand for the structures. Entries after “also recorded” stand apart in the source; their conditions may differ.

Assay [1] relates to HSF-1 and Nrf2 transcription pathways. Conditions: literature statement (Satoh et al. 2015); cited from earlier work.
In assay [2] the test system is neural damage / oxidative stress. The settings on record: literature statement; cited from earlier work.
For assay [3], the system named is Nrf2/ARE pathway. Conditions: literature statement; cited from earlier work.
For assay [4], the system named is human iPSC-derived microglia (hiMG). The experiment in a line: TNF release from hiMG exposed to oligomeric Aβ and αSyn with their antibodies, ELISA. The class given is cell-based. Conditions: oligomeric Aβ (~750 nM oligomers) + oligomeric αSyn (~100 nM) with anti-αSyn & anti-Aβ antibodies; carnosic acid 2 μM; n=3 per group. The protocol: (§1) Proinflammatory microglial activation. Following a protocol adapted from D. Trudler et al. (2021), human induced pluripotent stem cell (hiPSC)-derived microglia (hiMG) were plated at a concentration of 1×10^6 cells/mL. 16 h before the experiment the cell medium was changed to IMDM (no supplements added). Carnosic acid (CA, purity >99%) was added 16 hours before the experiment, at a concentration of 2 μM. Recombinant αSyn oligomers (100 nM) and oligomeric Aβ (10 μM) were incubated with 2.5 μg/mL of their respective antibodies for 1 h prior to adding to hiMG for additional 6 hours. Media was collected and cytokine levels, IL-1β or tumor necrosis factor (TNF), were measured by ELISA per the manufacturer's instructions.
(§2) Carnosic Acid Reduces Neuroinflammation Induced by Antibody-Misfolded Protein Complex. NLRP3 inflammasome activation was assessed by measuring the release of the proinflammatory cytokine interleukin-1β (IL-1β) from hiMG exposed to (A) oligomeric Aβ (500 nM oligomers) and low concentrations of oligomeric αSyn (100 nM), (B) Aβ and αSyn with their cognate human antibodies (anti-Aβ and anti-αSyn, respectively), and (C) same as (B) with carnosic acid.

For assay [5] the test system is unchanged. Nature of the assay: IL-1β release (NLRP3 inflammasome activation) from hiMG exposed to oligomeric Aβ and αSyn with their antibodies, ELISA. The class given is cell-based. The settings on record: oligomeric Aβ (~500 nM oligomers) + oligomeric αSyn (~100 nM) with anti-αSyn & anti-Aβ antibodies; carnosic acid 0.1-10 μM; n=3 per group. The protocol:
as §1, §2
On the technique in general: In an ELISA, binding on a coated surface is turned into a signal by an enzyme label.

Take `CC(C)c1cc2c(c(O)c1O)[C@@]1(C(=O)O)CCCC(C)(C)[C@@H]1CC2` [Carnosic acid, carnosic acid]: the “activation of HSF-1 and Nrf2 transcription pathways” value in assay [1] was “activates both the HSF-1 and Nrf2 transcription pathways”. The neuroprotective effect result in assay [2] is “affording protection against neural damage”. In assay [3], the “activation of the Nrf2/ARE pathway” value was “activates the Nrf2/ARE pathway”. Also, in assay [4], the “TNF release from hiMG” value is “significantly reduced TNF release; also recorded: significantly reduced the type of inflammation”. Besides, the “IL-1β release from hiMG” value in assay [5] is given as “significantly reduced IL-1β release; also recorded: reduction in IL-1β”.
As for `C=C1CC[C@@H]2C(C)(C)CCCC2(C)C1Cc1cc(O)ccc1O` (stereo partly shown) [Zonarol, zonarol], the neuroprotective effect result in assay [2] is on record as “exert neuroprotective effects against oxidative stress”. Also, the “activation of the Nrf2/ARE pathway” value in assay [3] is “activate the Nrf2/ARE pathway”.

The record behind these values is patent US20250122146A1, “COMPOUNDS FOR REDUCING NEUROINFLAMMATION” (THE SCRIPPS RESEARCH INSTITUTE, priority 2021, published 2025).
